Assay results taken from ChEMBL document CHEMBL5329179, “Inhibitory effect of γ-ray-modified hydroxymethylated baicalins on NO production” (Bioorg Med Chem Lett, 2023).
Converted amounts (≈) assume the structure as drawn. The source made the active and inactive calls. The rule behind the calls is not given here.

Tests used:
Assay type in all cases: functional, cell-based
[1] = Antiinflammatory activity against LPS-stimulated dog DH82 cells assessed as reduction in NO production; details: Canis lupus familiaris
[2] = tested on: RAW264.7; experiment: Antiinflammatory activity against LPS-stimulated mouse RAW264.7 cells assessed as reduction in NO production
[3] = tested on: DH82; experiment: Antiinflammatory activity against LPS-stimulated dog DH82 cells assessed as reduction in iNOS mRNA expression level at 20 uM by qRT-PCR analysis; details: Canis lupus familiaris
[4] = tested on: RAW264.7; experiment: Antiinflammatory activity against LPS-stimulated mouse RAW264.7 cells assessed as reduction in iNOS mRNA expression level at 20 uM by qRT-PCR analysis
[5] = tested on: RAW264.7; experiment: Antiinflammatory activity against mouse RAW264.7 cells assessed as reduction in NO production compound photoirradiated using 50 kGy gamma-ray; details: RAW264.7, light or radiation study

Row | SMILES | IC50 [1] [µM] | IC50 [2] [µM] | Activity [3] | Activity [4] | IC50 [5] [µg/mL]
1 | COc1c(O)cc2oc(-c3ccccc3)cc(=O)c2c1O [OROXYLIN A] | 50.6 | 48.9 | – | – | –
2 | N=C(N)NN [PIMAGEDINE] | 21 | 24.5 | – | – | –
3 | O=C(O)[C@H]1O[C@@H](Oc2cc3oc(-c4ccccc4)cc(=O)c3c(O)c2O)[C@H](O)[C@@H](O)[C@@H]1O [BAICALIN] | > 200 | 157 | Active | Active | 35.2 (≈ 78.9 µM)
4 | O=C(O)[C@H]1O[C@@H](Oc2cc3c(c(O)c2O)C(=O)[C@@H](CO)[C@](CO)(c2ccccc2)O3)[C@H](O)[C@@H](O)[C@@H]1O | 57.5 | 68 | – | – | –
5 | O=C1C[C@](CO)(c2ccccc2)Oc2cc3c(c(O)c21)OOC3 | > 200 | > 200 | – | – | –
6 | O=C1C[C@@](CO)(c2ccccc2)Oc2cc(O[C@@H]3O[C@H](C(=O)O)[C@@H](O)[C@H](O)[C@H]3O)c(O)c(O)c21 | 19.1 | 18.9 | Active | Active | –
7 | O=C1C[C@](CO)(c2ccccc2)Oc2cc(O[C@@H]3O[C@H](C(=O)O)[C@@H](O)[C@H](O)[C@H]3O)c(O)c(O)c21 | 24.9 | 22.7 | Active | Active | –
8 | O=c1cc(-c2ccccc2)oc2cc(O)c(O)c(O)c12 [BAICALEIN] | 31.2 | 30.4 | – | – | –
